{"source": "patent US4758580A", "about": "“Inhibiting growth of tumors with certain substituted phenoxy dimethyl alkanoic acids, esters or salts” (Yamanouchi Pharmaceutical Co., Ltd., priority 1985, dated 1988)", "key": {"Ehrlich solid tumor": {"tested_on": "Ehrlich solid tumor", "test": "Anti-tumor test against Ehrlich solid tumor", "format": "in vivo, ddY/SLC mice", "experimental": "Ehrlich tumor cells, 2×10^6, on Day 7 after intraperitoneal transplantation to ddY/SLC mice were subcutaneously transplanted in the left abdomen of ddY/SLC mice (5 week age, male), 10 each grouped into one. The active component was intraperitoneally or orally administered in a definite dose 24 hours after the transplantation, according to the schedule shown in Table 1 (A), (B) or (C). An effect of inhibiting growth of tumor was compared, by measuring the long diameter and short diameter of the tumor on 14, 20 and 21 Days after the transplantation, calculating the tumor size (mm^2) and determining a tumor growth inhibition rate of the group administered with the active component to the control group according to the following equation:\nGrowth inhibition rate (%)=(C-T)/C×100\nT: means tumor size (mm^2) in the active component-administered group\nC: mean tumor size (mm^2) in the control group"}, "Ehrlich ascites tumor": {"tested_on": "Ehrlich ascites tumor", "test": "Anti-tumor effect against Ehrlich ascites tumor", "format": "in vivo, ddY/SLC mice", "conditions": "25 mg/kg i.p., 1-9 Days", "experimental": "Ehlrich tumor cells, 1×10^6, on Day 7 after intraperitoneal transplantation to ddY/SLC mice were intraperitoneally transplanted to ddY/SLC mice (5 week age, male) of 10 mice each being grouped in one. The active component was intraperitoneally administered in a definite dose 24 hours after the transplantation according to the schedule shown in Table 4. An effect of tumor growth inhibition was evaluated by a percentage of the median survival day of the administered group versus that of the control group, according to the following equation.\n(§1) T: median survival day of the administered group\n(§2) C: median survival day of the control group"}, "MM-46 ascites tumor": {"tested_on": "MM-46 ascites tumor", "test": "Anti-tumor test against mice mammary cancer MM-46 ascites tumor", "format": "in vivo, C3 H/He/CRJ mice", "experimental": "MM-46 tumor cells, 1×10^6, on Day 7 after intraperitoneal transplantation to C3 H/He/CRJ mice (5 week age, male) of 10 mice each being grouped in one. The active component was intraperitoneally administered in a definite dose 24 hours after the transplantation according to the schedule shown in Table 5. An effect of tumor growth inhibition was evaluated by a percentage of the median survival time of the administered group versus that of the control group, according to the following equation.\nas §1, §2"}, "[1]": {"tested_on": "liver cancer (MH-134) cells", "test": "Inhibition of spontaneous metastasis (to the lymph node) of liver cancer (MH-134) cells in mice", "format": "in vivo, C3 H/He/SLC mice", "conditions": "20th day", "experimental": "(a) Inhibition of spontaneous metastasis (to the lymph node) of liver cancer (MH-134) cells in mice\nMH-134 tumor cells, 1×10^6, on Day 7 after intraperitoneal transplantation to C3 H/He/SLC mice were transplanted to the right leg. On the 11th day after the transplantation, the right leg portion wherein the cancer cells were transplanted were cut off. The test compounds were administered orally in a definite dose 24 hours after the transplantation. In order to confirm metastasis-inhibiting effect, on 20th day of the transplantation the mice were anatomised to observe the metastasis to the lymph node in the inguinal portion. [formula] Further, the weight of the lymph node metastasis tumor in the inguinal portion of anatomised mice was measured. [formula]"}, "L-1210": {"tested_on": "L-1210", "test": "In vitro cytotoxicity against mouse tumor cells, L-1210", "format": "cell-based", "conditions": "L1210, 72 h", "experimental": "(§3) A suspension of cells in a culture medium was transferred into wells in a microplate in an amount of 1×10^5 cells/wall. Test sample diluted with a culture medium was added to the suspension in each well, and the mixture was incubated on the medium at 37° C. for 3 days in atmosphere of air containing 5% carbon dioxide. Thereafter, the incubated cells were recovered from the microplate and the number of live cells was counted by the dye exclusion test using a 0.5% solution of trypan blue and by using a hemocytomer."}, "Ehrlich (carcinoma)": {"tested_on": "Ehrlich (carcinoma)", "test": "In vitro cytotoxicity against mouse tumor cells, Ehrlich", "format": "cell-based", "conditions": "Ehrlich, 72 h", "experimental": "as §3"}, "MH 134 (liver cancer)": {"tested_on": "MH 134 (liver cancer)", "test": "In vitro cytotoxicity against mouse tumor cells, MH 134", "format": "cell-based", "conditions": "MH 134, 72 h", "experimental": "as §3"}, "[2]": {"tested_on": "Meth A (methylcholanthrene-induced cancer)", "test": "In vitro cytotoxicity against mouse tumor cells, Meth A", "format": "cell-based", "conditions": "Meth-A, 72 h", "experimental": "as §3"}, "[3]": {"tested_on": "KB (nasal cavity & pharynx cancer)", "test": "In vitro cytotoxicity against human tumor cells, KB", "format": "cell-based", "conditions": "72 h", "experimental": "(§4) A suspension of cells in a culture medium was transferred into wells in a microplate in an amount of 5×10^4 cells/well. Test sample diluted with a culture medium was added to the suspension in each well, and the mixture was incubated at 37° C. for 3 days in an atmosphere of air containing 5% carbon dioxide. After skimming, sticking cells were dyed which crystalviolet for 10 minutes. After washing with water, 1% sodium lauryl sulfate solution was added to each well, and the absrobancy (optical density) at […] was measured. \"% inhibition\" was calculated from the following equation. [formula]"}, "Bowes (melanoma)": {"tested_on": "Bowes (melanoma)", "test": "In vitro cytotoxicity against human tumor cells, Bowes", "format": "cell-based", "conditions": "72 h", "experimental": "as §4"}, "ACHN (kidney cancer)": {"tested_on": "ACHN (kidney cancer)", "test": "In vitro cytotoxicity against human tumor cells, ACHN", "format": "cell-based", "conditions": "72 h", "experimental": "as §4"}, "[4]": {"conditions": "Day 14, 2.5 mg/kg i.p., Days 1, 2, 3, 5 & 6"}, "[5]": {"conditions": "Day 14, 12.5 mg/kg i.p., Days 1, 2, 3, 4, 6, 7, 8, 9"}, "[6]": {"conditions": "Day 14, 25 mg/kg i.p., Days 1, 2, 3, 4 & 7"}, "[7]": {"conditions": "Day 14, 25 mg/kg i.p., Days 1, 2, 3, 4, 6, 7, 8, 9"}, "[8]": {"conditions": "Day 21, 2.5 mg/kg i.p., Days 1, 2, 3, 5 & 6"}, "[9]": {"conditions": "Day 21, 12.5 mg/kg i.p., Days 1, 2, 3, 4, 6, 7, 8, 9"}, "[10]": {"conditions": "Day 21, 25 mg/kg i.p., Days 1, 2, 3, 4 & 7"}, "[11]": {"conditions": "Day 21, 25 mg/kg i.p., Days 1, 2, 3, 4, 6, 7, 8, 9"}, "[12]": {"conditions": "6.25 mg/kg i.p., 1, 2, 3, 4 and 6 Days"}, "[13]": {"conditions": "12.5 mg/kg i.p., 1, 2, 3, 4 and 6 Days"}, "[14]": {"conditions": "25 mg/kg i.p., 1, 2, 3, 4 and 6 Days"}, "[15]": {"conditions": "50 mg/kg oral, 1, 3, 5, 7, 9, 11, 13 and 15 days"}, "[16]": {"conditions": "100 mg/kg oral, 1, 3, 5, 7, 9, 11, 13 and 15 days"}}}
{"smiles": "O=c1[nH]cc(F)c(=O)[nH]1", "note": "[5-Fluorouracil, reference compound]", "values": [{"measurement": "Growth Inhibition Rate", "setting": "Ehrlich solid tumor; [4]", "value": 42.9, "unit": "%"}, {"measurement": "Size of Tumor", "setting": "Ehrlich solid tumor; [4]", "value": "133.7 ± 61.1", "unit": "mm^2"}, {"measurement": "Growth Inhibition Rate", "setting": "Ehrlich solid tumor; [5]", "value": 44.1, "unit": "%"}, {"measurement": "Size of Tumor", "setting": "Ehrlich solid tumor; [5]", "value": "142.6 ± 36.9", "unit": "mm^2"}, {"measurement": "Growth Inhibition Rate", "setting": "Ehrlich solid tumor; [6]", "value": 40.0, "unit": "%"}, {"measurement": "Size of Tumor", "setting": "Ehrlich solid tumor; [6]", "value": "86.7 ± 35.1", "unit": "mm^2"}, {"measurement": "Growth Inhibition Rate", "setting": "Ehrlich solid tumor; [7]", "value": 54.4, "unit": "%"}, {"measurement": "Size of Tumor", "setting": "Ehrlich solid tumor; [7]", "value": "116.3 ± 44.0", "unit": "mm^2"}, {"measurement": "Growth Inhibition Rate", "setting": "Ehrlich solid tumor; [8]", "value": 42.4, "unit": "%"}, {"measurement": "Size of Tumor", "setting": "Ehrlich solid tumor; [8]", "value": "306.8 ± 166.8", "unit": "mm^2"}, {"measurement": "Growth Inhibition Rate", "setting": "Ehrlich solid tumor; [9]", "value": 34.2, "unit": "%"}, {"measurement": "Size of Tumor", "setting": "Ehrlich solid tumor; [9]", "value": "280.6 ± 68.9", "unit": "mm^2"}, {"measurement": "Growth Inhibition Rate", "setting": "Ehrlich solid tumor; [10]", "value": 57.5, "unit": "%"}, {"measurement": "Size of Tumor", "setting": "Ehrlich solid tumor; [10]", "value": "217.8 ± 126.2", "unit": "mm^2"}, {"measurement": "Growth Inhibition Rate", "setting": "Ehrlich solid tumor; [11]", "value": 40.8, "unit": "%"}, {"measurement": "Size of Tumor", "setting": "Ehrlich solid tumor; [11]", "value": "252.3 ± 100.3", "unit": "mm^2"}, {"measurement": "Median Survival Day", "setting": "Ehrlich ascites tumor", "value": 24.5, "unit": "days"}, {"measurement": "No. of 40-day Survivors", "setting": "Ehrlich ascites tumor", "value": "0/8"}, {"measurement": "T/C (median survival)", "setting": "Ehrlich ascites tumor", "value": 163.3, "unit": "%"}, {"measurement": "Median Survival Day", "setting": "MM-46 ascites tumor; [12]", "value": 16.0, "unit": "days"}, {"measurement": "Survivors (90 days)", "setting": "MM-46 ascites tumor; [12]", "value": "0/10"}, {"measurement": "T/C (median survival)", "setting": "MM-46 ascites tumor; [12]", "value": 213.3, "unit": "%"}, {"measurement": "Median Survival Day", "setting": "MM-46 ascites tumor; [13]", "value": 17.0, "unit": "days"}, {"measurement": "Survivors (90 days)", "setting": "MM-46 ascites tumor; [13]", "value": "0/10"}, {"measurement": "T/C (median survival)", "setting": "MM-46 ascites tumor; [13]", "value": 226.7, "unit": "%"}, {"measurement": "Median Survival Day", "setting": "MM-46 ascites tumor; [14]", "value": 20.0, "unit": "days"}, {"measurement": "Survivors (90 days)", "setting": "MM-46 ascites tumor; [14]", "value": "0/10"}, {"measurement": "T/C (median survival)", "setting": "MM-46 ascites tumor; [14]", "value": 266.7, "unit": "%"}, {"measurement": "Growth inhibition of the metastasis tumor", "setting": "[1]; [15]", "value": 48.7, "unit": "%"}, {"measurement": "Metastasis-inhibition rate", "setting": "[1]; [15]", "value": 17.7, "unit": "%"}, {"measurement": "Growth inhibition of the metastasis tumor", "setting": "[1]; [16]", "value": 74.2, "unit": "%"}, {"measurement": "Metastasis-inhibition rate", "setting": "[1]; [16]", "value": 41.2, "unit": "%"}, {"measurement": "IC50", "setting": "L-1210", "value": 0.06, "unit": "µg/mL"}, {"measurement": "IC50", "setting": "Ehrlich (carcinoma)", "value": 0.05, "unit": "µg/mL"}, {"measurement": "IC50", "setting": "MH 134 (liver cancer)", "value": 0.009, "unit": "µg/mL"}, {"measurement": "IC50", "setting": "[2]", "value": 0.1, "unit": "µg/mL"}, {"measurement": "IC50", "setting": "[3]", "value": 1.75, "unit": "µg/mL"}, {"measurement": "IC50", "setting": "Bowes (melanoma)", "value": 0.61, "unit": "µg/mL"}, {"measurement": "IC50", "setting": "ACHN (kidney cancer)", "value": 0.1, "unit": "µg/mL"}]}
